Experimental data as given in patent US20130158111A1, “Compositions and Methods for Depleting Mutant p53” (Georgetown University, priority 2011, published 2013).

Legend:
[1] = test system: DU145 (mutant p53) xenograft tumors; assay: Xenograft model, DU145 tumors, PEITC diet; format: in vivo, BALB/C nu/nu transgenic mice
Description: Briefly, 30 BALB/C nu/nu transgenic mice (purchased from Charles River) were randomized into two groups, and fed with powder diet AlN93 (purchased from Research Diets, Inc.) with or without addition of 5 μM PEITC compound (purchased from Sigma-Aldrich). After two weeks of feeding, two xenograft tumors each carrying […] in a volume of 100 μL were established by injection into both flanks of a mouse. Mice were continuously fed with diets with or without PEITC for additional 8 weeks before sacrifice. Diet intake and tumor volume were measured twice every week. Tumors were harvested at the end of bioassay for immunohistochemistry and immunoblot studies. […] Immunohistochemistry assays were carried out to examine the apoptotic markers, such as TUNEL, and anti-proliferation marker Ki67 in tumors from the PEITC-treated vs. untreated mice. This study provides the first in vivo evidence that mutant p53 can be depleted in tumors of mice fed PEITC-containing diet and its depletion seems to correlate with growth inhibition in the mutant p53 tumors.

[2] = test system: mutant p53 in MDA-MB-231, MDA-MB-468, DU145, SW480, and SCC-4 cells; assay: Immunoblot of mutant p53 in other tumor cells with mutant p53; format: cell-based, Human
From the text: Human H596, A549, HCT116, MDA-MB-231, MDA-MB-468, MCF-7, DU145, MCF-10A, SW480, and SCC-4 cells were obtained from ATCC (Manassas, Va.). H1299-175H cells were kindly provided by Dr. Maria Laura Avantaggiati (Georgetown University). Cells were maintained in DMEM or RPMI-1640 medium supplemented with 10% FBS (Hyclone). DMSO, PEITC, BITC, SFN, AITC, NMPEA, and monochlorobimane were purchased from Sigma-Aldrich (St. Louis, Mo.). 2,2-Diphenylethyl ITC, 4-phenoxybenzyl ITC, 4-methoxybenzyl ITC, 4-chlorobenzyl ITC, Dα-methylbenzyl ITC, trityl ITC, and 3-phenylpropyl ITC were purchased from Trans World Chemicals (Rockville, Md.). Erucin and 4-phenylbutyl ITC were from LKT Laboratories, Inc. (St. Paul, Minn.). […] All the compounds are with purities ≧95% as determined by gas-liquid chromatography or HPLC. […]
Whole cell lysates were prepared in lysis buffer (20 mM HEPES, pH 7.4, 2 mM EGTA, 50 mM β-glycerol phosphate, 1% Triton X-100, 10% glycerol, 1 mM DTT, 1 mM PMSF, […], 1 mM Na3-VO4, and 5 mM NaF). […] Proteins were detected using enhanced chemiluminescence (ECL) reagents (GE Healthcare). […]

A549 (WT p53) cell line = assay: Cell proliferation, A549; format: cell-based, Human
Description: Next, the effect of PEITC exposure on tumor growth of the tumor cell lines expressing mutant or the WT p53 protein was examined. […] This hypersensitivity to PEITC being mediated through mutant p53 was next examined. The effect of PEITC on mda-mb-231 cells depleted of mutant p53 by >90% was compared to non-specific (NS) siRNA transfected cells as a control (FIG. 9B). […] Further the effect of PEITC treatment on the level of mutant p53 protein at lower doses was analyzed by western blot analysis (FIG. 9D).

[3] = target: T1, mutant (G245C) p53 DNA-binding domain (Homo sapiens, UniProt P04637, G245C); assay: Monochlorobimane fluorometric cysteine binding assay; conditions: 100 μM ITC, 1 h, 32 C; compared with trityl ITC, cyclohexylmethyl ITC, SFN, AITC, and PITC (p<0.05)
T1 construct: made in house; host or cells: Escherichia coli BL21
T1 sequence (P04637 102-292 limits assumed, stated change not applied): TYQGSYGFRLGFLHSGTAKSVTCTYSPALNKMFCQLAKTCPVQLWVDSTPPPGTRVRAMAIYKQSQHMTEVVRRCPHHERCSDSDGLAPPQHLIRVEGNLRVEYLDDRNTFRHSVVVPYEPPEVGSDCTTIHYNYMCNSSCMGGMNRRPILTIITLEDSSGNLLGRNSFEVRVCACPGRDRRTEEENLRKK
Description: BL21 […] Escherichia coli were transformed with pET29b wild-type or mutant (G245C) p53 DNA binding domain (DBD) plasmids. The E. coli were then cultured in LB media supplemented with 100 μM ZnCl2 and 25 μg/mL kanamycin at 37° C. until OD600=0.6-0.8. Protein expression was induced by 0.1 mM isopropyl β-D-1-thiogalactopyranoside for 16 h at 37 gC for wild-type and 16 gC for mutant p53. Bacterial pellets were then harvested by centrifugation at 5000×g, 10 min, 4 gC, and lysed via sonication in 50 mM Tris, 50 mM KCl, 5 mM dithiothreitol, 1 mM PMSF, pH 7 buffer. The soluble fraction was passed through a Capto S cation exchange column (GE Healthcare) and eluted with 50 mM Tris, 200 mM KCl, 5 mM DTT, pH 7. Eluted protein was dialyzed overnight against a non-salt dialysis buffer (50 mM Tris, 5 mM DTT, pH 7) and loaded onto a HiTrap Heparin HP column (GE Healthcare). The p53 DBD was purified via a AKTApurifier-10 protein liquid chromatography system (GE Healthcare) with an increasing KCl salt gradient, and purity was tested by SDSPAGE and Coomassie blue staining. Purified protein was dialyzed in PBS, and protein concentrations were determined prior to performing fluorescence experiments.
In a white 96-well plate, 100 μL of purified mutant (G245C) p53 DNA-binding domain protein in PBS was treated with DMSO, 100 μM ITCs in DMSO, or 500 μM iodoacetamide (positive binding control). An additional well containing 100 μL of PBS was used to determine background. Samples were incubated with compounds in the dark for 1 h at 32 gC, after which […] of 10 mM monochlorobimane was added (in the dark), and samples were further incubated in the dark at 32 gC for 30 min. Fluorescence readings were then obtained using a BIO-TEK Synergy HT plate reader (λex 380 nm; λem 485 nm).

S=C=NCCc1ccccc1 [PEITC, phenethyl isothiocyanate]
p53 level in tumors detected by immunoblot ([1]; DU145 tumors, PEITC diet): moderate, yet significant, decrease | tumor volume ([1]; DU145 xenograft, diet with 5 μM PEITC vs diet without PEITC, 8 weeks): significantly decreased | mutant p53 level in five cell lines ([2]; 10 or 15 μM PEITC, time-dependent): depleted mutant p53 in all five cell lines | concentration causing marked reduction in the level of mutant p53 protein ([2]; variety of tumor cell lines): ≥ 10 µM | reduction in cell proliferation (A549 (WT p53) cell line; 12 μM PEITC): 25% | reduction in cell proliferation (A549 (WT p53) cell line; 14 μM PEITC): 45% | binding affinity for mutant (G245C) p53 DBD (free thiols, relative fluorescence) [3]: greater binding affinities
